What was measured:
Test in all cases: relative viability (nuclei count vs DMSO), 5 days (fraction); higher = more cells survive
Seliciclib + Vorinostat = compound: CC[C@H](CO)Nc1nc(NCc2ccccc2)c2ncn(C(C)C)c2n1 [Seliciclib] + O=C(CCCCCCC(=O)Nc1ccccc1)NO [Vorinostat] (partner 1 µM)
How it was run: (§1)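 Lung cancer cell lines were seeded in 1536-well plates and dosed by pin tool the next day, with either a single drug or a fixed anchor-drug dose combined with five library-drug doses (not always all listed) spaced in √10 steps. Five days later, one step fixed the cells and stained their nuclei (final 0.05% Triton X-100, 1% formaldehyde, 1 ug/ml Hoechst), and nuclei were counted on 4× images. Relative viability is the nuclei count in treated wells divided by the count in vehicle wells, and each value is the median of duplicate plates.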

Seliciclib + Pemetrexed = compound: CC[C@H](CO)Nc1nc(NCc2ccccc2)c2ncn(C(C)C)c2n1 [Seliciclib] + Nc1nc2[nH]cc(CCc3ccc(C(=O)N[C@@H](CCC(=O)O)C(=O)O)cc3)c2c(=O)[nH]1 [Pemetrexed] (partner 0.2 µM)
How it was run: as §1

Seliciclib + Dasatinib = compound: CC[C@H](CO)Nc1nc(NCc2ccccc2)c2ncn(C(C)C)c2n1 [Seliciclib] + Cc1nc(Nc2ncc(C(=O)Nc3c(C)cccc3Cl)s2)cc(N2CCN(CCO)CC2)n1 [Dasatinib] (partner 0.075 µM)
How it was run: as §1

Seliciclib + Palbociclib = compound: CC[C@H](CO)Nc1nc(NCc2ccccc2)c2ncn(C(C)C)c2n1 [Seliciclib] + CC(=O)c1c(C)c2cnc(Nc3ccc(N4CCNCC4)cn3)nc2n(C2CCCC2)c1=O [Palbociclib] (partner 0.5 µM)
How it was run: as §1

Cell Line | relative viability (Seliciclib + Vorinostat; first compound 0.08 µM) | relative viability (Seliciclib + Vorinostat; first compound 0.253 µM) | relative viability (Seliciclib + Vorinostat; first compound 0.8 µM) | relative viability (Seliciclib + Vorinostat; first compound 2.53 µM) | relative viability (Seliciclib + Vorinostat; first compound 8 µM) | relative viability (Seliciclib + Pemetrexed; first compound 0.08 µM) | relative viability (Seliciclib + Pemetrexed; first compound 0.253 µM) | relative viability (Seliciclib + Pemetrexed; first compound 0.8 µM) | relative viability (Seliciclib + Pemetrexed; first compound 2.53 µM) | relative viability (Seliciclib + Pemetrexed; first compound 8 µM) | relative viability (Seliciclib + Dasatinib; first compound 0.08 µM) | relative viability (Seliciclib + Dasatinib; first compound 0.253 µM) | relative viability (Seliciclib + Dasatinib; first compound 0.8 µM) | relative viability (Seliciclib + Dasatinib; first compound 2.53 µM) | relative viability (Seliciclib + Dasatinib; first compound 8 µM) | relative viability (Seliciclib + Palbociclib; first compound 0.08 µM) | relative viability (Seliciclib + Palbociclib; first compound 0.253 µM) | relative viability (Seliciclib + Palbociclib; first compound 0.8 µM) | relative viability (Seliciclib + Palbociclib; first compound 2.53 µM) | relative viability (Seliciclib + Palbociclib; first compound 8 µM)
NCI-H1944 | 0.562 | 0.527 | 0.466 | 0.552 | 0.338 | 0.575 | 0.634 | 0.453 | 0.608 | 0.428 | 0.242 | 0.198 | 0.208 | 0.17 | 0.205 | 0.354 | 0.312 | 0.28 | 0.261 | 0.268
NCI-H1975 | 0.689 | 0.608 | 0.66 | 0.652 | 0.46 | 0.274 | 0.328 | 0.281 | 0.331 | 0.267 | 0.409 | 0.374 | 0.424 | 0.326 | 0.314 | 0.619 | 0.342 | 0.55 | 0.389 | 0.339
NCI-H1993 | 0.836 | 0.931 | 0.883 | 0.559 | 0.498 | 0.601 | 0.597 | 0.608 | 0.507 | 0.456 | 0.589 | 0.478 | 0.521 | 0.508 | 0.435 | 0.699 | 0.567 | 0.533 | 0.547 | 0.423
NCI-H2009 | 0.742 | 0.862 | 0.753 | 0.687 | 0.671 | 1.08 | 1.17 | 1.03 | 0.981 | 1.02 | 0.322 | 0.376 | 0.307 | 0.233 | 0.288 | 0.202 | 0.0934 | 0.162 | 0.155 | 0.161
NCI-H2023 | 0.641 | 0.736 | 0.649 | 0.5 | 0.43 | 0.261 | 0.276 | 0.229 | 0.181 | 0.222 | 0.534 | 0.407 | 0.606 | 0.434 | 0.477 | 0.366 | 0.324 | 0.295 | 0.183 | 0.159
NCI-H2085 | 0.763 | 0.762 | 0.756 | 0.74 | 0.556 | 0.979 | 1.01 | 0.856 | 0.935 | 0.727 | 0.219 | 0.274 | 0.256 | 0.294 | 0.251 | 0.472 | 0.44 | 0.419 | 0.41 | 0.314
NCI-H2087 | 0.802 | 0.677 | 0.686 | 0.725 | 0.314 | 0.635 | 0.591 | 0.673 | 0.652 | 0.639 | 0.874 | 1.07 | 0.898 | 0.704 | 0.754 | 0.28 | 0.288 | 0.241 | 0.16 | 0.151
NCI-H2126 | 0.806 | 0.783 | 0.579 | 0.375 | 0.611 | 0.631 | 0.683 | 0.682 | 0.515 | 0.542 | 0.671 | 0.598 | 0.557 | 0.334 | 0.501 | 0.345 | 0.332 | 0.358 | 0.315 | 0.338

— the supplement of paper PMC10307832
